Assay results taken from publication PMC12721191, “Oxidative hypoxia drives TGF-β1–induced fibrosis under normoxia” (Redox Biology, 2025).
pIC50: −log10 of the molar value.

Assays:
[1] = Metabolic stability in pooled human liver microsomes; assay type: in vitro ADME; conditions: with NADPH, 0–60 min, read-out: half-life (t1/2) in HLMs
Protocol: To initiate the reaction, NADPH generating system was added to the incubation samples and further incubated for specific time points (0, 5, 15, 30, 45, and 60 min). Then, sample aliquots were taken and terminated with cold acetonitrile.

CYP2C19 = biological target: T1, CYP2C19 (Homo sapiens, UniProt P33261); experiment: Cytochrome P450 inhibition assay in HLMs; assay type: in vitro ADME; conditions: pooled human liver microsomes, probe S-mephenytoin (4-hydroxylation), up to 50 μM
T1 construct: tissue Xenotech H0630; host or cells: pooled human liver microsomes
Protocol: (§1) All experiments were performed in triplicate. Phenacetin O-deethylase, coumarin hydroxylase, bupropion hydroxylase, amodiaquine N-deethylase, tolbutamide 4-hydroxylase, S-mephenytoin hydroxylase, dextromethorphan O-demethylase, chlorozoxazone 6-hydroxylase, and midazolam 1’-hydroxylase activities were determined as probe activities for CYP1A2, CYP2A6, CYP2B6, CYP2C8, CYP2C9, CYP2C19, CYP2D6, CYP2E1, and CYP3A, respectively, using cocktail incubation and tandem mass spectrometry, as described previously^2,3.

CYP2C8 = biological target: T2, CYP2C8 (Homo sapiens, UniProt P10632); experiment: Cytochrome P450 inhibition assay in HLMs; assay type: in vitro ADME; conditions: pooled human liver microsomes, probe amodiaquine (N-deethylation), up to 50 μM
T2 construct: tissue Xenotech H0630; host or cells: pooled human liver microsomes
T2 sequence (P10632 1-490): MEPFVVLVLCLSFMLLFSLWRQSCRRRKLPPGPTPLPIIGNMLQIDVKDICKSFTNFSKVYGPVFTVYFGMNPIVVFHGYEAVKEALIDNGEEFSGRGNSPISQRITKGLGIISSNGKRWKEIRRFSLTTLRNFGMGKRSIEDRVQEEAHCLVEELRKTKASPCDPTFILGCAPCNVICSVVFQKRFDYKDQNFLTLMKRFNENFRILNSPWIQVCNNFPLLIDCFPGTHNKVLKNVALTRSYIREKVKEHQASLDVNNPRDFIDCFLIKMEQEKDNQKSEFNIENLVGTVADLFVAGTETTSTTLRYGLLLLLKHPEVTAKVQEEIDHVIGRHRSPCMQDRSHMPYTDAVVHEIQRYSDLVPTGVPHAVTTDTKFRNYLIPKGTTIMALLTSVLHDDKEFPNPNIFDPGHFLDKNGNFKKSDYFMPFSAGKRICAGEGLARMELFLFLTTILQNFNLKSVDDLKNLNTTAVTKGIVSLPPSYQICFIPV
Protocol: as §1

colon = experiment: Colonic histopathology in the BLM mouse study; assay type: in vivo, ICR mice; conditions: BLM mice; ACF-2 10 mg/kg i.p. every 2 days or NIDB 60 mg/kg/day
Description: Fixed left lung lobes were paraffin-embedded, sectioned (4 μm), and stained with H&E or MT. A blinded pathologist graded pulmonary fibrosis on the 1-8 Ashcroft scale; representative images illustrate typical lesions. Colon samples were processed by the swiss-roll method, stained with H&E, and scored for inflammation and erosion, which were combined into a composite histological score. All animal studies were approved by the Institutional Animal Care and Use Committee of Jeju National University (Approval ID: 2024-0058) and conducted in compliance with institutional guidelines. Male ICR mice (6 weeks old, average body weight 27 g) were purchased from […] (South Korea) and housed under controlled temperature (22 ± 2 °C) and humidity (0.0 ± 15.0 %) on a 12 hr light-dark cycle with free access to food and water. […] Colon tissue: Colons were harvested, flushed with 1xPBS, and prepared using the swiss-roll method before embedding in paraffin. Sections of 4 μm thickness were subjected to H&E staining as described above. Colonic injury was evaluated by two independent parameters: (i) inflammation score (0-3) and (ii) erosion score (0-3). A composite histological score was then calculated as the sum of inflammation and erosion scores for each sample.

HIF-1α–EGFP in A549 = experiment: pg-HIF-1α–EGFP fluorescence in transfected A549; assay type: cell-based, human; conditions: A549, co-treatment with TGF-β1
Protocol: pg-HIF-1α–EGFP was introduced via jetOPTIMUS®; GFP fluorescence was quantified 48 h post-transfection.
Transient transfection of A549 cells with pg-HIF-1α–EGFP was performed using jetOPTIMUS® according to the manufacturer’s protocol. Following 48 hr of transfection, the medium was replaced, and cells were treated with TGF-β1 at the specified concentration and duration before further analysis. Cell imaging was performed using an EVOS™ M7000 at 10×, 20×, or 40× magnification. GFP fluorescence intensity was measured using ImageJ. The mean fluorescence within the regions of interest (ROIs) was calculated after background subtraction, and values were normalized to the control condition

A549 = experiment: Intracellular ROS staining (DHR123 microscopy, CM-H2DCFDA flow cytometry); assay type: cell-based, human
Protocol: CellROX™ Deep Red or DHR123 fluorescence microscopy, and CM-H2DCFDA flow cytometry, were used to quantify intracellular ROS.
Dihydrorhodamine (DHR)123: Cells were similarly seeded at 3 × 10⁴ cells per well in 1 mL of medium on Cell Culture Slide I. After the desired treatments and incubation times, the medium was removed, cells were washed with PBS, and 10 µM Dihydrorhodamine 123 in PBS was applied for 30 min at 37 °C. Hoechst 33342 (0.5 µg/mL) was added for the final 10 min. Cells were then washed in PBS and imaged with the EVOS™ M7000 system in the Cy2 channel.
CM-H₂DCFDA: Cells (2 × 10⁵) were plated in 2 mL of medium per well in a 6-well plate. After treatment for the indicated times, the medium was removed, and cells were washed once with PBS. CM-H₂DCFDA (10 µM) in PBS was added for 30 min at 37 °C, followed by a 10 min equilibration in PBS. Cells were then detached with trypsin for 1 min, neutralized with FBS, pelleted by centrifugation, and resuspended in PBS. Fluorescence was measured using a CytoFLEX LX flow cytometer (excitation/emission: 485/520 nm).

[2] = system: BLM-induced pulmonary fibrosis; experiment: RT-qPCR of lung tissue in BLM-treated mice; assay type: in vivo, ICR mice; conditions: BLM 30 mg/kg; ACF-2 10 mg/kg i.p. every 2 days or NIDB 60 mg/kg/day
Protocol: Total RNA (AccuPrep®) was reverse-transcribed and amplified with SYBR Green chemistry on a StepOnePlusTM system; relative expression was calculated by ΔΔCt. Male ICR mice received BLM (30 mg/kg, intratracheal). […] Total RNA was extracted from both cultured cells and mouse lung tissue using the AccuPrep® Universal RNA Extraction Kit. […] RT-qPCR was performed using iTaqTM Universal SYBR® Green Supermix on a StepOnePlusTM Real-Time PCR System. […] All animal studies were approved by the Institutional Animal Care and Use Committee of Jeju National University (Approval ID: 2024-0058) and conducted in compliance with institutional guidelines. Male ICR mice (6 weeks old, average body weight 27 g) were purchased from […] (South Korea) and housed under controlled temperature (22 ± 2 °C) and humidity (0.0 ± 15.0 %) on a 12 hr light-dark cycle with free access to food and water.

T1 sequence (P33261 whole entry): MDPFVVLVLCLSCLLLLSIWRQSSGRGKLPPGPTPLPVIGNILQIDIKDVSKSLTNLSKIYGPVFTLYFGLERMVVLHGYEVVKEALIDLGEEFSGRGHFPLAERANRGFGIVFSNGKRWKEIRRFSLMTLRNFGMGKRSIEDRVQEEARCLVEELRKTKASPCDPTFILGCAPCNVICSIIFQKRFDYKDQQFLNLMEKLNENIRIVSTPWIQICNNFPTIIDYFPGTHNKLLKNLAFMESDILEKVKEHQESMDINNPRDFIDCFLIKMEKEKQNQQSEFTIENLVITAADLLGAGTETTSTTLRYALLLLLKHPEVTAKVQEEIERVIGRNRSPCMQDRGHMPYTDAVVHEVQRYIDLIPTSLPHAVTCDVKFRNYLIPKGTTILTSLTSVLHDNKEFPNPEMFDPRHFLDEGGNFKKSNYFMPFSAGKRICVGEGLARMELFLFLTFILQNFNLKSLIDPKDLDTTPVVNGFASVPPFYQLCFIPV

half-life at 1 µM [1]: > 1 h
pIC50 (CYP2C19): 5.09
pIC50 (CYP2C8): 5.20
SMILES: COc1ccc(-c2c(-c3ccc(O)c(OC)c3)oc3cc(OC)c(OC)cc3c2=O)cc1 [ACF-2]
composite histological score of colon (inflammation + erosion) (colon): did not induce colonic inflammation or erosion
TGF-β1–induced HIF-1α–EGFP GFP fluorescence intensity (HIF-1α–EGFP in A549): significantly attenuated the TGF-β1–induced increase in GFP fluorescence intensity
TGF-β1-induced ROS (DCFDA flow cytometry) (A549; A549, ACF-2 7 μM, TGF-β1 6 h): effectively suppressed TGF-β1-induced ROS elevation
TGF-β1-induced ROS (DHR123) (A549; A549, TGF-β1 6 h, NAC 10 mM as comparator): reduced TGF-β1-induced ROS accumulation even more effectively than NAC
TGF-β1 (Tgfb1) expression in lung (RT-qPCR) [2]: markedly reduced
